Assay results taken from patent EP2522332A1, “Use of resveratrol and magnesium-ascorbyl-phosphate” (DSM IP Assets B.V., priority 2011, dated 2012).
Like-named read-outs stand apart in the source and are kept apart here.

System: SILV
Assay: Assessment of gene modulation in normal human epidermal melanocytes (NHEM), RT-qPCR / PCR array
Type: cell-based
Details: for activation at 1000 µg/mL: Homo sapiens, Melanocyte
Experimental: Normal human epidermal melanocytes were cultivated for 24 hours. […] Cells were cultivated for additional 72 hours. All experimental conditions were performed in triplicate.
At the end of the cultivation, the cells were harvested and washed with phosphate buffered saline (PBS) solution and immediately frozen at -80°C. The expression of selected markers was analyzed using RT-qPCR method on mRNA extracted from cells layer for each treatment condition. The differential expression analysis was performed by PCR arrays of the screening format "mQPA H-Melanocyte-64", which focuses on 64 genes selected for their importance in pigmentation and melanocyte biology.
Total RNA was extracted from each sample using TRI-Reagent®. The amount and quality of the RNA was evaluated using a lab-on-a-chip Bioanalyzer (Agilent technologies). Potential contaminants traces of DNA were removed […] The incorporation of fluorescence in amplified DNA was measured continuously during the PCR cycles. […] The value selected for RE calculations is the "output point" (Ct) of the fluorescence curve. For a given marker, the highest is the cycle number; the lowest, is the mRNA quantity. The RE value is expressed in arbitrary units (AU) according to the equation: (((1)/(2)))^NC x 10^6 [formula]
Where NC is the number of cycles.

Compound | activation at 1000 µg/mL (NHEM cells treated 72 hours, resveratrol 5 µg/ml, magnesium-ascorbyl-phosphate 1 mg/ml, combination 5 µg/ml + 1 mg/ml, versus control, read-out: SILV (expression level of the gene SILV)) | activation at 1000 µg/mL (NHEM cells, magnesium ascorbyl phosphate 1 mg/ml, 72 hours, read-out: induction of the SILV gene) | modulation of the gene SILV (NHEM cells, resveratrol alone 5 micrograms/ml, 72 hours)
O=C1O[C@H]([C@@H](O)CO)C(O)=C1OP(=O)(O)O [magnesium-ascorbyl-phosphate, magnesium-L-ascorbyl-2-phosphate] | 25% | 25% | 
Oc1ccc(C=Cc2cc(O)cc(O)c2)cc1 [Resveratrol, 3,4',5 trihydroxystilbene] |  |  | did not modulate
